Source: patent publication US20240226302A1, “BIODEGRADABLE LIPIDS AND FORMULATIONS FOR INTRAMUSCULAR, IN VITRO, AND EX VIVO TRANSFECTION OF MRNA” (Massachusetts Institute of Technology, priority 2022, published 2024)
Values belong to the compound of their own block, whether it stands above or below them.

What was measured:
[1] = tested on: Jurkat cells; assay: mRNA (luciferase) transfection of Jurkat cells by LNPs, Bright-Glo assay; format: cell-based, human; settings: 150 ng mRNA
Method: (§1) LNPs for in vitro studies and intramuscular injections were prepared by hand mixing. The lipid components were dissolved in ethanol and, separately, mRNA encoding for firefly luciferase (fLuc) was diluted into a solution of 10 mM citrate pH 3.0 at a concentration of […]. The two solutions were mixed in a 3:1 water:ethanol volume ratio by repeatedly pipetting up and down. For intravenous studies, nanoparticles were instead formed by mixing the ethanol and aqueous phases with a microfluidic chip as described previously.
Based on high transfection potency in Hela cells, some of the potent lipids were tested for mRNA delivery efficacy in Jurkat cells, an immortalized human T-cell line for potential CAR-T therapeutic applications. Jurkat cells were cultured in a RPMI-1640 medium with L-glutamine supplemented with 10% bovine serum and 1% penicillin-streptomycin. Jurkat cells were plated on a white, flat-bottom 96 well plate (Corning, Corning, NY) at a density of 100k cells/well and co-incubated dosed with 150 ng of mRNA. Luciferase expression in the cells was determined after 24 hours using a Bright-Glo assay (Promega, Madison, WI) and normalized to cell viability (Multi-tox, Promega).

[2] = tested on: mice; assay: Intramuscular injection of LNPs loaded with firefly luciferase mRNA, 0.25 mg/kg, luciferase expression; format: in vivo; settings: for potency compared to MD-1 (luciferase expression): 0.25 mg/kg Fluc mRNA
Method: as §1
The in vivo potency of the ionizable lipids was screened through intramuscular injection of LNPs loaded with mRNA encoding firefly luciferase protein. These LNPs were formulated with a molar composition of (35:16:46.5:2.5) using one of the synthesized ionizable lipids, DOPE as a helper lipid, cholesterol, and DMPE-PEG. Ionizable lipid AMG104 was chosen due to high in vitro mRNA transfection ability. mRNA-loaded LNPs were intramuscularly administered in mice at a dose of 0.25 mg/kg (5 μg) and expression of luciferase protein was monitored at 6 hours (0.25 day), and day 1, 2, 3, 5 and 7.
Additional lipids were synthesized varying length of the hydrophobic tail with or without one alkene or by varying the location of the internal alkene near or away from the ester linkage. The number of carbons on the amine headgroup was also varied (FIG. 4). […] The luciferase expression was monitored at 6 h, 24 h, and 48 h time points after intramuscular administration of Fluc mRNA dosed at 0.25 mg/kg formulated with various LNPs containing these lipids.

[3] = tested on: HeLa cells; assay: In vitro full factorial DOE formulation screening of LNPs, luciferase expression, Bright-Glo assay; format: cell-based
Method: as §1
HeLa cells were plated on a white, flat-bottom 96 well plate (Corning, Corning, NY) at a density of 15k cells/well and allowed to recover for 24 hrs. Each well was then dosed with 150 ng of mRNA, and, after 24 hrs., luciferase expression was determined using a Bright-Glo assay (Promega, Madison, WI). The first generation of ionizable lipids was screened in this manner and the results are shown as performance relative to a positive control MD-1^3 in a heatmap in FIG. 2.
For intravenous experiments, design of experiments (DOE) was used to systematically vary the ratios of each of the LNP components for lipid AMG104. First, an initial screening of each of the components was performed using a definitive screening design. This experimental design allows for identification of the LNP components which have the greatest effect on delivery potency. […]

[4] = tested on: ovalbumin; assay: Vaccination against ovalbumin by intramuscular injection of Ova mRNA, antibody titers and Elispot; format: in vivo
Method: AMG1041 was tested for vaccination against ovalbumin.

[5] = Lipid clearance monitored by LC-MS after intramuscular injection; format: in vivo; settings: BALB/C mice, LC-MS (FIG. 15A)
Method: AMG1041 lipid clearance was monitored by LC-MS after intramuscular injection to BALB/C mice at various time points. AMG1041 was cleared within 24 hours from the injection site in the muscle (FIG. 15A). As a comparison, SM-102 was detectable even after 40 hours (FIG. 15B).^5 https://www.ncbi.nlm.nih.gov/pmc/articles/PMC6383180/).

[6] = Intramuscular route screening with FLuc mRNA (0.1 μg), luciferase expression; format: in vivo; settings: FLuc mRNA 0.1 μg (FIG. 12)
Method: In addition, the importance of the OH group was evaluated. The importance of the orientation of the ester and OH was also evaluated (FIG. 10). The additional tails were also used to synthesize AMG1058, AMG1059, and AMG1041OHD. From a screening experiment using 0.1 μg FLuc mRNA dose, it was determined that the ester's specific orientation and the OH groups' location are important for G41 potency and that minor alterations can dramatically decrease potency.
The potency of these lipids was tested in vivo via intramuscular administration. AMG1041OHD was not tested in vivo due to difficulty in formulating these particles. The FLuc mRNA (0.1 μg) intramuscular route screening data is shown in FIG. 12 for the AMG1041 derivative lipids.

[7] = comparison, FIG. 15B, reference 5 (Hassett et al.); cited from earlier work

SMILES: CCCCCCCC/C=C\CCCCCCCC(=O)OCC(O)CN1CCCN(CC(O)COC(=O)CCCCCCC/C=C\CCCCCCCC)CCN(CC(O)COC(=O)CCCCCCC/C=C\CCCCCCCC)CCCN(CC(O)COC(=O)CCCCCCC/C=C\CCCCCCCC)CC1 (stereo not shown) [AMG104]
transfection in jurkat cells as compared to MD-1 lipid ([1]; 24 hours (FIG. 3)): increased transfection
mRNA transfection compared to commercially used lipofectamine positive controls ([1]; 24 hours, normalized to cell viability (FIG. 3)): higher mRNA transfection
luciferase protein expression in mice ([2]; 0.25 mg/kg (5 μg) fLuc mRNA, LNP 35:16:46.5:2.5 ionizable lipid:DOPE:cholesterol:DMPE-PEG): high luciferase protein expression
potency compared to MD-1 (luciferase expression) [2]: comparable to that of MD1
in vitro performance of formulation 2 relative to the original (control) formulation 1 ([3]; AMG104 LNP formulation 2 (helper 35%, ionizable lipid 30%, cholesterol 32.5%, DMPE-PEG 2.5%, lipid:mRNA 10:1) vs formulation 1 (16/35/46.5)): ~8.2 ×
in vitro transfection ([3]; AMG104 using formulation 2): extremely potent in vitro transfection

time to clearance from the injection site in the muscle [5]: ≤ 24 h
SMILES: CCCCCC/C=C\CCCC(=O)OCC(O)CN1CCCN(CC(O)COC(=O)CCC/C=C\CCCCCC)CCN(CC(O)COC(=O)CCC/C=C\CCCCCC)CCCN(CC(O)COC(=O)CCC/C=C\CCCCCC)CC1 (stereo not shown) [AMG1041]
luciferase expression, times higher ([2]; 0.25 mg/kg Fluc mRNA (FIG. 5A), comparator not stated, MD-1 named in the same sentence): 2-3 times
cellular response from Elispot assay as compared to SM-102 and MD-1 ([4]; after day 28 (FIG. 14)): strong cellular response
antibody titers, potency compared to SM-102 ([4]; day 14, intramuscular, varying Ova mRNA doses (FIG. 14)): higher potency compared to SM-102

SMILES: CCCC/C=C\CCCCCCCC(=O)OCC(O)CN1CCCN(CC(O)COC(=O)CCCCCCC/C=C\CCCC)CCN(CC(O)COC(=O)CCCCCCC/C=C\CCCC)CCCN(CC(O)COC(=O)CCCCCCC/C=C\CCCC)CC1 (stereo not shown) [AMG1042]
potency compared to MD-1 (luciferase expression) [2]: nearly as potent as

SMILES: CCCCCC/C=C\CCCCCCCC(=O)OCC(O)CN1CCCN(CC(O)COC(=O)CCCCCCC/C=C\CCCCCC)CCN(CC(O)COC(=O)CCCCCCC/C=C\CCCCCC)CCCN(CC(O)COC(=O)CCCCCCC/C=C\CCCCCC)CC1 (stereo not shown) [AMG1043]
potency compared to MD-1 (luciferase expression) [2]: nearly as potent as

SMILES: CCCCCC/C=C\CCCCCCCCCC(=O)OCC(O)CN1CCCN(CC(O)COC(=O)CCCCCCCCC/C=C\CCCCCC)CCN(CC(O)COC(=O)CCCCCCCCC/C=C\CCCCCC)CCCN(CC(O)COC(=O)CCCCCCCCC/C=C\CCCCCC)CC1 (stereo not shown) [AMG1044]
potency compared to MD-1 (luciferase expression) [2]: nearly as potent as

SMILES: CCCC/C=C\C/C=C\CCC(=O)OCC(O)CN1CCCN(CC(O)COC(=O)CC/C=C\C/C=C\CCCC)CCN(CC(O)COC(=O)CC/C=C\C/C=C\CCCC)CCCN(CC(O)COC(=O)CC/C=C\C/C=C\CCCC)CC1 (stereo not shown) [AMG1053]
luciferase expression compared to control sample with MD-1 [6]: nearly as well as the control sample with MD-1

SMILES: C/C=C\C/C=C\CCCCCC(=O)OCC(O)CN1CCCN(CC(O)COC(=O)CCCCC/C=C\C/C=C\C)CCN(CC(O)COC(=O)CCCCC/C=C\C/C=C\C)CCCN(CC(O)COC(=O)CCCCC/C=C\C/C=C\C)CC1 (stereo not shown) [AMG1056]
luciferase expression compared to control sample with MD-1 [6]: performed similarly

SMILES: CCCCCCCCCCCOC(=O)CCCCCN(CCO)CCCCCCCC(=O)OC(CCCCCCCC)CCCCCCCC [SM-102]
time after which lipid was still detectable [7]: > 40 h
